Data reported in patent publication US6518278B1, “Carcinostatic substance for compatible administration, process of administrating same and process of rapidly inspecting same” (Debio Pharm S.A., priority 1994, dated 2003).
“Also recorded” adds a separate entry of the source.

Tested on: human leutecyte strain cell (RPMI-8402)
Test: Extinction effect of compatible administration of l-OHP and a compatible agent on tumor cells (compatible efficiency OE)
Assay type: cell-based
Details: for Compatible Effects of l-OHP and Compatible Agent, Simultaneous Administration: both added day 1
Description: In the evaluation of the extinction effect of the tumor cells of the respective combinations, a pure extinction effect produced by the compatible administration of the compatible agent and the l-OHP is calculated by subtracting an extinction effect of a control (no carcinostatic substance is employed).
The compatibly administration effect is calculated by employing an Equation (1) described later. When the value (%) calculated by this Equation is between 85 and 115%, the compatible administration effect is evaluated to be an additive effect. When the value is below 85%, it is evaluated to be below the additive effect. When the value is over 115%, it is evaluated to be a synergistic effect, ±15% is a reliability limit or a measurement error.
A target tumor cell was a human leutecyte strain cell (RPMI-8402 of Gibuko K.K.). To these cells was added blood serum of a cow embryo (15%, Gibuko K.K.) to prepare a cell floating liquid of which the number of the cells was 10^6/ml in a cultivation bottle (tradename; Sumiron of Sumitomo Bakelite o., Ltd.) having a volume of 6 ml. A plenty of the cultivation bottles having the cell floating liquid therein were prepared, and the following experiments were conducted while selecting one kind of a compatible agent among cisplatin, 5-FU, irinotecane, adriamycin, etoposide, mitomycin, mitoxantrone, bleomycin, vincristin and vindecin. The time schedules of the controls (no addition of medicines, addition of only the l-OHP and addition of only a compatible agent, and specified in the below items (1) to (4)) and of the compatible administration of the compatible agent and the l-OHP are shown in FIG. 10.
(1) No medicine was added (control).
(2) Only the l-OHP was added at a second day.
(3) A large amount of compatible agents were added at a first day ([…] of the cisplatin, 10 μg/ml of the 5-FU, 0.05 μg/ml of the adriamycin and 1 μg/ml of the etoposide, and for the comparison purpose, 0.05 μg/ml of the vincristin and 0.06 μg/ml of the vindecin). The adding amount of the irinotecano was fixed to 10 μg/ml, and the addition amount of the l-OHP was 5 μg/ml.
(4) A small amount of compatible agents were added at a first day (0.5 μg/ml of the cisplatin, 5 μg/ml of the 5-FU, 0.01 μg/ml of the adriamycin and 0.5 μg/ml of the etoposide, and for the comparison purpose, 0.01 μg/ml of the vincristin and 0.01 μg/ml of the vindecin). The adding amount of the irinotecane was fixed to 10 μg/ml, and the addition amount of the l-OHP was 1 μg/ml.
(5) The l-OHP and a large amount (the same as that of the above item (3) and so forth in the following items) of the compatible agents were simultaneously added at a first day.
(6) The l-OHP and a small amount (the same as that of the above item (4) and so forth in the following items) of the compatible agents were simultaneously added at a first day.
(7) The l-OHP was added at a first day and a large amount of the compatible agents were added at a second day.
(8) The l-OHP was added at a first day and a small amount of the compatible agents were added at a second day.
(9) The l-OHP was added at a first day and a large amount of the compatible agents were added at a third day.
(10) The l-OHP was added at a first day and a small amount of the compatible agents were added at a third day.
(11) The l-OHP was added at a first day and a large amount of the compatible agents were added at a fourth day.
(12) The l-OHP was added at a first day and a small amount of the compatible agents were added at a fourth day.
(13) A large amount of the compatible agents were added at a first day and the l-OHP was added at a second day.
(14) A small amount of the compatible agents were added at a first day and the l-OHP was added at a second day.
(15) A large amount of the compatible agents were added at a first day and the l-OHP was added at a third day.
(16) A small amount of the compatible agents were added at a first day and the l-OHP was added at a third day.

[1] = larger dosage of compatible agent (μg/ml: cisplatin 1, 5-FU 10, irinotecane 10, adriamycin 0.05, vincristin 0.05, vindecin 0.05, etoposide 1, bleomycin 10, mitoxantrone 0.1, mitomycine 1), l-OHP 1 μg/ml (5 μg/ml with irinotecane) added day 1
[2] = larger dosage of compatible agent (μg/ml: cisplatin 1, 5-FU 10, irinotecane 10, adriamycin 0.05, vincristin 0.05, vindecin 0.05, etoposide 1, bleomycin 10, mitoxantrone 0.1, mitomycine 1), l-OHP 1 μg/ml (5 μg/ml with irinotecane)
[3] = larger dosage of compatible agent added day 1 (μg/ml: cisplatin 1, 5-FU 10, irinotecane 10, adriamycin 0.05, vincristin 0.05, vindecin 0.05, etoposide 1, bleomycin 10, mitoxantrone 0.1, mitomycine 1), l-OHP 1 μg/ml (5 μg/ml with irinotecane)
[4] = smaller dosage of compatible agent (μg/ml: cisplatin 0.5, 5-FU 5, irinotecane 10, adriamycin 0.01, vincristin 0.01, vindecin 0.01, etoposide 0.5, bleomycin 1, mitoxantrone 0.05, mitomycine 0.5), l-OHP 1 μg/ml added day 1
[5] = smaller dosage of compatible agent (μg/ml: cisplatin 0.5, 5-FU 5, irinotecane 10, adriamycin 0.01, vincristin 0.01, vindecin 0.01, etoposide 0.5, bleomycin 1, mitoxantrone 0.05, mitomycine 0.5), l-OHP 1 μg/ml
[6] = smaller dosage of compatible agent added day 1 (μg/ml: cisplatin 0.5, 5-FU 5, irinotecane 10, adriamycin 0.01, vincristin 0.01, vindecin 0.01, etoposide 0.5, bleomycin 1, mitoxantrone 0.05, mitomycine 0.5), l-OHP 1 μg/ml

Row | Compound | compatible administration effect with l-OHP, summary in words | Compatible Effects of l-OHP and Compatible Agent, Time Lag Administration, Addition Administration of Compatible Agent day 2 [1] | Compatible Effects of l-OHP and Compatible Agent, Time Lag Administration, Addition Administration of Compatible Agent day 3 [1] | Compatible Effects of l-OHP and Compatible Agent, Time Lag Administration, Addition Administration of Compatible Agent day 4 [1] | Compatible Effects of l-OHP and Compatible Agent, Simultaneous Administration [2] | Compatible Effects of l-OHP and Compatible Agent, Time Lag Administration, Addition Administration of l-OHP day 2 [3] | Compatible Effects of l-OHP and Compatible Agent, Time Lag Administration, Addition Administration of l-OHP day 3 [3] | Compatible Effects of l-OHP and Compatible Agent, Time Lag Administration, Addition Administration of l-OHP day 4 [3] | Compatible Effects of l-OHP and Compatible Agent, Time Lag Administration, Addition Administration of Compatible Agent day 2 [4] | Compatible Effects of l-OHP and Compatible Agent, Time Lag Administration, Addition Administration of Compatible Agent day 3 [4] | Compatible Effects of l-OHP and Compatible Agent, Time Lag Administration, Addition Administration of Compatible Agent day 4 [4] | Compatible Effects of l-OHP and Compatible Agent, Simultaneous Administration [5] | Compatible Effects of l-OHP and Compatible Agent, Time Lag Administration, Addition Administration of l-OHP day 2 [6] | Compatible Effects of l-OHP and Compatible Agent, Time Lag Administration, Addition Administration of l-OHP day 3 [6] | Compatible Effects of l-OHP and Compatible Agent, Time Lag Administration, Addition Administration of l-OHP day 4 [6]
1 | O=C1c2c(O)ccc(O)c2C(=O)c2c(NCCNCCO)ccc(NCCNCCO)c21 [mitoxantrone] | the additive effect or the synergistic effect regardless of the administration method and the dosage in almost all the cases; also recorded: synergistic effects can be obtained in all the combinations when a small amount of the mitoxantrone is employed and the l-OHP is added later | • (•: Synergistic Effect) | ◯ (◯: Additive Effect) | Δ (Δ: Below Additive Effect) | ◯ (◯: Additive Effect) | ◯ (◯: Additive Effect) | ◯ (◯: Additive Effect) | ◯ (◯: Additive Effect) | ◯ (◯: Additive Effect) | • (•: Synergistic Effect) | Δ (Δ: Below Additive Effect) | • (•: Synergistic Effect) | • (•: Synergistic Effect) | • (•: Synergistic Effect) | • (•: Synergistic Effect)
2 | CCc1c2c(nc3ccc(OC(=O)N4CCC(N5CCCCC5)CC4)cc13)-c1cc3c(c(=O)n1C2)COC(=O)[C@]3(O)CC [irinotecane] | the additive effect or the synergistic effect regardless of the administration method and the dosage in almost all the cases; also recorded: synergistic effects can be obtained in all the combinations when the l-OHP is added later | ◯ (◯: Additive Effect) | ◯ (◯: Additive Effect) | Δ (Δ: Below Additive Effect) | ◯ (◯: Additive Effect) | ◯ (◯: Additive Effect) | • (•: Synergistic Effect) | • (•: Synergistic Effect) | ◯ (◯: Additive Effect) | ◯ (◯: Additive Effect) | ◯ (◯: Additive Effect) | ◯ (◯: Additive Effect) | • (•: Synergistic Effect) | • (•: Synergistic Effect) | • (•: Synergistic Effect)
3 | CO[C@@]12[C@H](COC(N)=O)C3=C(C(=O)C(C)=C(N)C3=O)N1C[C@@H]1N[C@@H]12 [mitomycine, mitomycin] | the additive effect or the synergistic effect regardless of the administration method and the dosage in almost all the cases; also recorded: synergistic effects can be obtained in most combinations when the l-OHP is administrated before to the mitomycin | ◯ (◯: Additive Effect) | • (•: Synergistic Effect) | • (•: Synergistic Effect) | ◯ (◯: Additive Effect) | ◯ (◯: Additive Effect) | Δ (Δ: Below Additive Effect) | Δ (Δ: Below Additive Effect) | ◯ (◯: Additive Effect) | • (•: Synergistic Effect) | • (•: Synergistic Effect) | ◯ (◯: Additive Effect) | ◯ (◯: Additive Effect) | Δ (Δ: Below Additive Effect) | ◯ (◯: Additive Effect)
